One series deals with T1, Electric eel AChE (Electrophorus electricus, UniProt O42275).
T1 construct: purchased Sigma-Aldrich (Steinheim, Germany)
Briefly: biochemical. To be noted: AChE from electric eel; mean ± SD from three separate experiments; read-out: IC50 EeAChE. The protocol:
(§1) The AChE and BChE inhibitory activities of compounds were determined by using a slightly modified Ellman’s method. Electric eel AChE, equine serum BChE, 5,5′-dithiobis(2-nitrobenzoic acid) (DTNB), phosphate buffer solution (PBS, pH 8.0), acetylthiocholine (ATC) iodide, and butyrylthiocholine (BUC) iodide were purchased from Sigma-Aldrich (Steinheim, Germany). […] Enzyme solutions were prepared at 2.0 U/mL in 2-mL aliquots. The assay medium consisted of 10 μL of enzyme, 40 μL of PBS, 20 μL of 0.01 M DTNB, and 10 μL of tested compound. Assayed solutions of tested compounds were pre-incubated with corresponding ChE for 5 min. The reaction was initiated by the addition of 20 μL of 0.01 M substrate (ATC or BUC). The activity was determined by measuring the increase in absorbance at 410 nm at 37 °C in 2-min intervals using Tecan Spark multimode microplate reader (Mannedorf, Switzerland). The percentage of inhibition (I) was calculated from the measured data as follows: I = (Ac − Ai)/Ac × 100%, where Ai and Ac represent the change in the absorbance in the presence of an inhibitor and without an inhibitor, respectively.

For the next series, the target named is T2, equine serum BChE (Equus caballus, UniProt P81908).
T2 construct: purchased Sigma-Aldrich (Steinheim, Germany); host or cells: equine serum
T2 sequence (P81908 whole entry): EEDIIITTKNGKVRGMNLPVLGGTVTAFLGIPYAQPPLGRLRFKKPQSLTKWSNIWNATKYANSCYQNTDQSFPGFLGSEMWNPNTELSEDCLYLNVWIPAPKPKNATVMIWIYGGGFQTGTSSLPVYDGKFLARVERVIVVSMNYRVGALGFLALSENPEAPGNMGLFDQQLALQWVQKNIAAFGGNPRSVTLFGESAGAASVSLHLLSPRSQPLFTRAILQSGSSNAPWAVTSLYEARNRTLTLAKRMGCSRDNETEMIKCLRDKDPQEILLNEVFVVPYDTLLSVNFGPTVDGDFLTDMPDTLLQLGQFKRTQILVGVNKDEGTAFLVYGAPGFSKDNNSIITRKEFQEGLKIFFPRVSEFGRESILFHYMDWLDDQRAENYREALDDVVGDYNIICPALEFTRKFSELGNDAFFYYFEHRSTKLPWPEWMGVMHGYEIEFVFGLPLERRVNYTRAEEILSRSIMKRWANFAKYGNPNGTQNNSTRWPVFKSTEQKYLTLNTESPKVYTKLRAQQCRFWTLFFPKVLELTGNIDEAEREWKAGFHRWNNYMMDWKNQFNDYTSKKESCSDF
The series can be described thus: biochemical. To be noted: BChE from equine serum; mean ± SD from three separate experiments; read-out: IC50 eqBChE. The method, then: as §1

Another series concerns the target T3, Aβ1–42 (Homo sapiens, UniProt P05067).
T3 construct: pre-treated Aβ1–42 (GL Biochem Ltd., Shanghai, China) was dissolved in DMSO; purchased GL Biochem Ltd., Shanghai, China
Briefly: Inhibition of self-induced Aβ1–42 aggregation (ThT fluorescence). The format is biochemical. To be noted: Aβ1–42 2.5 µM, compound 10 µM; mean ± SD of three experiments. The protocol: In order to investigate the inhibition of compounds on Aβ1–42 self-aggregation, a ThT-based fluorometric assay was performed. 1,1,1,3,3,3-hexafluoro-2-propanol (HFIP) pre-treated Aβ1–42 (GL Biochem Ltd., Shanghai, China) was dissolved in DMSO to make a 200 µM stock solution. The stock solution was centrifuged at the speed of 13,500 rpm for 10 min. The above supernatant was used for experiments. The tested compounds were dissolved in DMSO at concentrations of 0.8 mM. A screening assay for the tested compounds to inhibit A aggregation was performed by measuring ThT fluorescence emission. Compounds (2 µL) and 2 µL of 200 µM Aβ1–42 were added into 76 µL of phosphate-buffered saline (PBS at pH 7.4) in a 96-well plate. After incubation for 24 h at room temperature, 80 µL of 5 µM of ThT solution (in 50 mM of glycine-NaOH at pH 8.5) was added to the reaction solution. Fluorescence emission was measured at 490 nm with an excitation wavelength of 450 nm on a Tecan Spark multimode microplate reader. […] The fluorescence intensities were compared, and the % inhibition was calculated by the following equation: 100 − [(Fi − Fb)/(Fo − Fb) × 100], where Fi, Fo and Fb are the fluorescence intensities obtained for Aβ aggregation in the presence of inhibitors Aβ1–42 and ThT; in the presence of Aβ1–42 and THT but no inhibitors; and the blanks containing ThT only.

In another series the target is T4, Aβ1–42 and AChE (Electrophorus electricus, UniProt O42275).
T4 construct: HFIP pre-treated Aβ1–42 (GL Biochem Ltd., shanghai, China) was dissolved in DMSO; purchased GL Biochem Ltd. (Aβ1–42)
T4 sequence (O42275 24-633): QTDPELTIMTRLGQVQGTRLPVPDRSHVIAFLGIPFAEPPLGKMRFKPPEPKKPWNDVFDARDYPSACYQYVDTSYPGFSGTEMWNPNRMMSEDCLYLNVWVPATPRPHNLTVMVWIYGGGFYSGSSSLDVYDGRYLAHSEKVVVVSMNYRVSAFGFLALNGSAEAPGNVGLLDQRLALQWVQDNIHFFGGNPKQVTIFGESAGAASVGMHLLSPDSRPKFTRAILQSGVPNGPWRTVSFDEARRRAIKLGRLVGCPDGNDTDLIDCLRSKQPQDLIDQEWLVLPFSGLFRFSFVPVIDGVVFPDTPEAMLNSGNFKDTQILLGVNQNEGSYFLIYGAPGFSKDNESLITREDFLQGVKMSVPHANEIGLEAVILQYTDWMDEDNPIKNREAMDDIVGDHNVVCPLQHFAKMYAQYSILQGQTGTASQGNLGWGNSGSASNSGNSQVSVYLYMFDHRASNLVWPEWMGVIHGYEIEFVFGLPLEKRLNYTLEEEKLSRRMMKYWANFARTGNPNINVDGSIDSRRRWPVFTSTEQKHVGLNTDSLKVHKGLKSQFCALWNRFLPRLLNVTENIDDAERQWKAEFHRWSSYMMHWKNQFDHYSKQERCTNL
The series can be described thus: Inhibition of AChE-induced Aβ1–42 aggregation (ThT fluorescence). To be noted: Aβ1–42 2.5 µM, AChE 0.2 U/mL, compound 8 µM; mean ± SD of three experiments. The format is biochemical. The method, then:
The stock solution was centrifuged at the speed of 13,500 rpm for 10 min. The above supernatant was used for experiments. […] Fluorescence emission was measured at 490 nm with an excitation wavelength of 450 nm on a Tecan Spark multimode microplate reader.

A short description of another series: in vitro. To be noted: human. The method, then:
Thus, to verify the hepatotoxicity of 1 and 12j, a 3-(4,5-dimethylthiazol-2-yl)-2,5-diphenyltetrazolium bromide (MTT) assay on the human hepatoma cell line (HepG2) was carried out.
The cytotoxicity of selected compounds was evaluated on HepG2 cells. Cells were inoculated into 96-well plates. After incubation for 24 h, the cells were treated with different concentrations of tested compounds for 24 h, and then were incubated with 10 μL of 3-(4,5-dimethylthiazol-2-yl)-2,5-diphenyltetrazolium bromide (MTT) at 37 °C for 2 h. The formazan dye product was measured by the absorbance at 490 nm on a Tecan Spark multimode microplate reader.

The test system of series [1] is AChE. Set-up: method as in PMID 24547899. To be noted: read-out: AChE IC50 (reported value); cited from earlier work.
The target in series [2] is T5, AChE (Electrophorus electricus, UniProt O42275).
T5 construct: purchased Sigma-Aldrich (Steinheim, Germany)
T5 sequence (O42275 24-633): as above
The series can be described thus: Kinetic study of AChE inhibition (Lineweaver-Burk, Ellman's method). The format is biochemical. The method, then: (§2) Herein, compound 12j was selected as a representative prototype for kinetic assay to obtain information on the mode of action and binding site of this series of analogues. […].
(§3) The equilibrium constant for binding with the free enzyme (Ki) was obtained from the slope against inhibitor concentration. […].
(§4) Kinetic studies of inhibition on AChE and BChE were performed by using Ellman’s method as described above. […]
(§5) (B) Secondary plot of slopes versus 12j concentrations.

In another series the target is T6, BChE (Equus caballus, UniProt P81908).
T6 construct: purchased Sigma-Aldrich (Steinheim, Germany); host or cells: equine serum
T6 sequence (P81908 whole entry): as the sequence (P81908 whole entry) above
Briefly: Kinetic study of BChE inhibition (Lineweaver-Burk, Ellman's method). The format is biochemical. The protocol:
as §2, §3, §4, §5
On the technique in general: DTNB colorimetry detects thiols as they appear.

Setting [3] is: estimated from secondary plot of slopes versus inhibitor concentration.

T1 sequence (O42275 24-633): as the sequence (O42275 24-633) above
T3 sequence (P05067 672-713 limits assumed): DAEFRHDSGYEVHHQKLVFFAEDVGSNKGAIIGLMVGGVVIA

With `COc1c(Br)cc(CC(=O)NCCCCC[N+](C)(C)C)cc1Br` [Compound 1, Pulmonarin B], the figures for the IC50 at Electric eel AChE, on equine serum BChE and in the series with AChE [1] were 37 ± 2.11 µM, 30.7 ± 1.44 µM and 36 µM, respectively. For the same compound, on Aβ1–42, the “Inhibition of Aβ Aggregation (%) Self-Induced” value amounted to 29.78 ± 1.45%. The “Inhibition of Aβ Aggregation (%) AChE-Induced” value on Aβ1–42 and AChE was 27.60 ± 1.96%. This compound also had an IC50 at 24 h in the series “in vitro” of over 80 µM.
For the compound `O=C(Cc1cc(Br)ccc1F)NCCCCCCCNc1c2c(nc3ccccc13)CCCC2` [Compound 12j, 2-(5-Bromo-2-fluorophenyl)-N-(7-((1,2,3,4-tetrahydroacridin-9-yl)amino)heptyl)acetamide], the IC50 came to 0.182 ± 0.006 µM on Electric eel AChE and 0.064 ± 0.006 µM at equine serum BChE. In addition, on AChE [2] (Lineweaver-Burk plots), the “Type of AChE inhibition” value was “linear mixed-type”. The Ki at AChE [2] (setting [3]) was 0.0975 µM; at BChE (setting [3]) it was 0.00991 µM. For the same compound, the “Type of BChE inhibition” value at BChE (Lineweaver-Burk plots) is given as “linear mixed-type”. For the same compound, the “Inhibition of Aβ Aggregation (%) Self-Induced” value at Aβ1–42 worked out at 32.37 ± 0.62%. In addition, on Aβ1–42 and AChE, the “Inhibition of Aβ Aggregation (%) AChE-Induced” value amounted to 47.73 ± 4.35%. This compound returned an IC50 at 24 h in “in vitro” of over 80 µM.

As a reminder, the IC50 is the concentration needed to halve the response being measured. As a reminder, the Ki is a measure of affinity in units of concentration, obtained from inhibition or displacement.

The record behind these values is paper PMC6164518 (Marine Drugs, 2018).
